Assay results published in patent publication US8901164B2, “Amphipathic and other double-sided alpha-helix mimetics based on a 1,2-diphenylacetylene scaffold” (University of Maryland, Baltimore, priority 2013, dated 2014).

Target: Mcl-1-Bak-BH3 complex (Homo sapiens, UniProt Q07820)
Experiment: Antagonism of the Mcl-1-Bak-BH3 complex (preliminary studies)
Format: binding
Details: read-out: IC50 for antagonizing the Mcl-1-Bak-BH3 complex

Mcl-1-Bak-BH3 complex, sequence (Q07820 172-327 limits assumed, one chain of several): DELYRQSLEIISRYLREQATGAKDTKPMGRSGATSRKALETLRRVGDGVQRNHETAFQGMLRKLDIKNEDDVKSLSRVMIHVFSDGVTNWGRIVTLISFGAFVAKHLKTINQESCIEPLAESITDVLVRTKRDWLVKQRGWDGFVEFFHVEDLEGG

CC(C)COc1ccc(C(=O)NCCN)c(C#Cc2cc(OCc3ccccc3)ccc2NC(=O)C(=O)O)c1OCC(C)C [Compound 14, 2-((2-((6-((2-Aminoethyl)carbamoyl)-2,3-diisobutoxyphenyl)ethynyl)-4-(benzyloxy)phenyl)amino)-2-oxoacetic acid]
IC50: 3.24 ± 0.48 µM
